# Source: patent US20100298376A1, “USE OF NOVEL NEUROPROTECTIVE 3-SUBSTITUTED INDOLONE COMPOSITIONS” (BOARD OF REGENTS, THE UNIVERSITY OF TEXAS SYSTEM, priority 2009, published 2010)
# Several values for one entry are separate records, joined by “and”; a condition that tells them apart may be missing. Equal entries are not always repeated. Where two headings read alike, the source gives them in different places.
# Tested on: cerebellar granule neurons
# Settings: for % neuronal survival Mean ± SD: 24 hours, percent of HK control
# Description: These compounds were analyzed for their neuroprotective activity in vitro. Granule neuron cultures were obtained from dissociated cerebella of 7-8 day old Wistar rats as known to one of ordinary skill in the art. Cells were plated in Basal Eagle's Medium with Earles salts (BME) supplemented with 10% fetal calf serum (FCS), 25 mM KCl, 2 mM glutamine (Invitrogen), and 100 μg/ml gentamycin on dishes (Nunc) coated with poly-L-lysine in 24-well dishes at a density 1×10^6 cells/well. Cytosine arabinofuranoside (10 μM) was added to the culture medium 18-22 hours after plating to prevent replication of non-neuronal cells that yields highly pure culture of granule neurons. The neuronal cultures were maintained for 7-8 days prior to treatments.
# This experimental model of neuronal apoptosis has been used widely used to understand the molecular mechanisms underlying neurodegeneration and to identify biological and chemical agents with neuroprotective efficacy. For this, the cells were rinsed once and then maintained in low K^+ medium (serum-free BME medium, 5 mM KCl; referred to as LK), or in the case of control cultures, in high K^+ medium (serum-free BME medium, supplemented with 20 mM KCl; referred to as HK). Each compound was tested at three different concentrations of 1 μM, 5 μM, and 25 μM. The 25 μM concentration was included to evaluate neurotoxicity. For treatments, the chemical compounds (dissolved in dimethylsulfoxide) were added directly to LK medium at the time of the switch from HK at concentrations of 1 μM, 5 μM, or 25 μM. Viability was assessed 24 hours later. Each compound was tested in duplicate (at each of the concentrations) and the experiment repeated at least 3 times. Although all compounds were solubilized in dimethylsulfoxide (DMSO), the amount of DMSO in the cultures never exceeded 0.1% (v/v).
# The viability status of neuronal cultures treated with HK, LK, or LK medium supplemented with various compounds was evaluated by phase contrast microscopy and quantified by staining cell nuclei with 4′,6′-diamidino2-phenylindole hydrochloride (DAPI). Briefly, the cells were fixed in 4% paraformaldehyde for 20 minutes at 4′C. After washing in phosphate buffered saline, DAPI (1 μg/ml in phosphate buffered saline) was added for 15 min at room-temperature and viewed under ultraviolet light (260 nm). Cells with condensed or fragmented nuclei were scored as dead. […] Statistical analysis was performed using an unpaired, two-tailed Student's t test, compared to mean neuronal survival of control cultures receiving LK treatment and the quantitative data are presented in Tables 1 and 2 for each compound.
# [1] = LK medium, concentration not specified
compound,measurement,setting,value
"CC(=O)c1ccc2c(c1)/C(=C/c1cc(Br)c(O)c(Br)c1)C(=O)N2 [Compound 34, (Z)-5-Acetyl-3-(3′,5′-dibromo-4′-hydroxybenzylidene)indolin-2-one]",neuroprotective activity (in words),[1],superior to Compound 1
same,% neuronal survival Mean ± SD,"Table 1, 1 μM in LK medium",96.8% and 96.8 ± 6.15 %
same,% neuronal survival Mean ± SD,"Table 1, 5 μM in LK medium",110.3% and 110.3 ± 8.50 %
same,% neuronal survival Mean ± SD,"Table 1, 25 μM in LK medium",2.2 ± 1.63 %
same,neuroprotective activity (in words),at 1 μM and 5 μM (two lower concentrations),impressive neuroprotection
"O=C1Nc2ccccc2C1=CC=Cc1ccccc1 [Compound 4, 3-(3′-Phenylallylidene)indolin-2-one]",neurotoxicity (in words),,non-toxic
same,neuroprotective activity (in words),[1],moderately protective
same,% neuronal survival Mean ± SD,"Table 1, 1 μM in LK medium",86.0 ± 2.03 %
same,% neuronal survival Mean ± SD,"Table 1, 5 μM in LK medium",83.6 ± 18.88%
same,% neuronal survival Mean ± SD,"Table 1, 25 μM in LK medium",81.1 ± 6.22 %
same,neuroprotective activity (in words),at all three concentrations,moderately efficacious
O=C1Nc2ccc([N+](=O)[O-])cc2/C1=C\C=Cc1ccccc1[N+](=O)[O-] [Compound 27],% neuronal survival Mean ± SD,"Table 1, 1 μM in LK medium",78.6 ± 6.84 %
same,% neuronal survival Mean ± SD,"Table 1, 5 μM in LK medium",51.9 ± 7.50%
same,% neuronal survival Mean ± SD,"Table 1, 25 μM in LK medium",78.6 ± 16.33%
"O=C1Nc2ccc(F)cc2/C1=C/c1cccs1 [Compound 44, (Z)-5-Fluoro-3-(thien-2′-ylmethylene)indolin-2-one]",neuroprotective activity (in words),[1],low protection
same,% neuronal survival Mean ± SD,"Table 2, 1 μM in LK medium",53.6 ± 14.24%
same,% neuronal survival Mean ± SD,"Table 2, 5 μM in LK medium",60.1 ± 10.28%
same,% neuronal survival Mean ± SD,"Table 2, 25 μM in LK medium",68.7 ± 9.35%
"O=C1Nc2ccc([N+](=O)[O-])cc2/C1=C/c1cc(Br)cc(Br)c1 [Compound 22, (Z)-3-(3′,5′-Dibromobenzylidene)-5-nitroindolin-2-one]",% neuronal survival Mean ± SD,"Table 1, 1 μM in LK medium",78.1 ± 5.82 %
same,% neuronal survival Mean ± SD,"Table 1, 5 μM in LK medium",78.7 ± 15.86%
same,% neuronal survival Mean ± SD,"Table 1, 25 μM in LK medium",74.5 ± 9.12%
"CC(=O)Oc1c(Br)cc(/C=C2/C(=O)Nc3ccc(Cl)cc32)cc1Br [Compound 9, (E)-2,6-Dibromo-4-(5′-chloro-2′-oxoindolin-3-ylidene)methyl)phenyl acetate]",neuroprotective activity (in words),[1],reduced activity
same,% neuronal survival Mean ± SD,"Table 1, 1 μM in LK medium",73.0 ± 5.59 %
same,% neuronal survival Mean ± SD,"Table 1, 5 μM in LK medium",84.6 ± 16.19 %
same,% neuronal survival Mean ± SD,"Table 1, 25 μM in LK medium",75.2 ± 31.54%
"O=C1Nc2ccccc2/C1=C\c1c(Cl)cccc1Cl [Compound 5, (E)-3-(2′,6′-Dichlorobezylidene)indolin-2-one]",neurotoxicity (in words),,toxic
same,neuroprotective activity (in words),[1],ineffective
same,% neuronal survival Mean ± SD,"Table 1, 1 μM in LK medium",54.6 ± 10.27%
same,% neuronal survival Mean ± SD,"Table 1, 5 μM in LK medium",52.9 ± 3.94%
same,% neuronal survival Mean ± SD,"Table 1, 25 μM in LK medium",24.5 ± 12.38%
"O=C1Nc2ccc([N+](=O)[O-])cc2/C1=C/c1ccccc1 [Compound 25, (Z)-3-Benzylidene-5-nitroindolin-2-one]",% neuronal survival Mean ± SD,"Table 1, 1 μM in LK medium",80.1 ± 18.01%
same,% neuronal survival Mean ± SD,"Table 1, 5 μM in LK medium",78.4 ± 17.54%
same,% neuronal survival Mean ± SD,"Table 1, 25 μM in LK medium",54.3 ± 3.63%
same,neuroprotective activity (in words),at all three concentrations,moderately efficacious
"O=C1Nc2ccc([N+](=O)[O-])cc2/C1=C\c1c(Cl)cccc1Cl [Compound 24, (E)-3-(2′,6′-Dichlorobenzylidene)-5-nitroindolin-2-one]",% neuronal survival Mean ± SD,"Table 1, 1 μM in LK medium",76.4 ± 9.84 %
same,% neuronal survival Mean ± SD,"Table 1, 5 μM in LK medium",69.9 ± 11.25%
same,% neuronal survival Mean ± SD,"Table 1, 25 μM in LK medium",70.7 ± 8.50%
"Cc1ccc(/C=C2/C(=O)Nc3ccc(Cl)cc32)cc1 [Compound 13, (E)-5-Chloro-3-(4′-methybenzylidene)indolin-2-one]",% neuronal survival Mean ± SD,"Table 1, 1 μM in LK medium",70.0 ± 17.50%
same,% neuronal survival Mean ± SD,"Table 1, 5 μM in LK medium",70.6 ± 13.86%
same,% neuronal survival Mean ± SD,"Table 1, 25 μM in LK medium",67.4 ± 17.40%
O=C1Nc2ccc(Cl)cc2/C1=C/c1ccc[nH]1 [Compound 36],neuroprotective activity (in words),[1],moderate protective activity
same,% neuronal survival Mean ± SD,"Table 2, 1 μM in LK medium",71.2 ± 0.02 %
same,% neuronal survival Mean ± SD,"Table 2, 5 μM in LK medium",84.0 ± 16.97 %
same,% neuronal survival Mean ± SD,"Table 2, 25 μM in LK medium",82.6 ± 10.18 %
"CN(C)c1ccc(/C=C2/C(=O)Nc3ccc(Cl)cc32)cc1 [Compound 15, (E)-5-Chloro-3-(4′-(dimethylamino)benzylidene)indolin-2-one]",% neuronal survival Mean ± SD,"Table 1, 1 μM in LK medium",51.8 ± 15.66%
same,% neuronal survival Mean ± SD,"Table 1, 5 μM in LK medium",55.8 ± 16.94%
same,% neuronal survival Mean ± SD,"Table 1, 25 μM in LK medium",79.7 ± 4.69 %
"COc1cc(/C=C2\C(=O)Nc3ccc([N+](=O)[O-])cc32)cc(OC)c1OC [Compound 23, (Z)-3-(3′, 4′,5′-Trimethoxybenzylidene)-5-nitroindolin-2-one]",% neuronal survival Mean ± SD,"Table 1, 1 μM in LK medium",76.6 ± 15.98%
same,% neuronal survival Mean ± SD,"Table 1, 5 μM in LK medium",61.9 ± 5.87%
same,% neuronal survival Mean ± SD,"Table 1, 25 μM in LK medium",69.0 ± 11.26%
"CN(C)c1ccc(/C=C2\C(=O)Nc3ccc([N+](=O)[O-])cc32)cc1 [Compound 29, (Z)-3-(4′-(Dimethylamino)benzylidene)-5-nitroindolin-2-one]",% neuronal survival Mean ± SD,"Table 1, 1 μM in LK medium",70.4 ± 9.37%
same,% neuronal survival Mean ± SD,"Table 1, 5 μM in LK medium",67.6 ± 10.31%
same,% neuronal survival Mean ± SD,"Table 1, 25 μM in LK medium",66.9 ± 9.86%
"O=C1Nc2ccc(Cl)cc2/C1=C\c1ccccc1 [Compound 12, (E)-3-Benzylidene-5-chloroindolin-2-one]",neuroprotective activity (in words),[1],not effective
same,% neuronal survival Mean ± SD,"Table 1, 1 μM in LK medium",58.6 ± 3.27%
same,% neuronal survival Mean ± SD,"Table 1, 5 μM in LK medium",63.8 ± 8.63%
same,% neuronal survival Mean ± SD,"Table 1, 25 μM in LK medium",41.1 ± 21.41%
"O=C1Nc2ccccc2/C1=C/c1cccs1 [Compound 41, (Z)-3-(Thien-2′-ylmethylene)indolin-2-one]",% neuronal survival Mean ± SD,"Table 2, 1 μM in LK medium",68.3 ± 13.16%
same,% neuronal survival Mean ± SD,"Table 2, 5 μM in LK medium",77.1 ± 13.16%
same,% neuronal survival Mean ± SD,"Table 2, 25 μM in LK medium",86.2 ± 4.03 %
same,neuroprotective activity (in words),at 25 μM / high doses,moderately active
"O=C1Nc2ccc(Cl)cc2/C1=C/c1cc(Br)cc(Br)c1 [Compound 8, (Z)-3-(3′,5′-Dibromobenzylidene)-5-chloroindolin-2-one]",neuroprotective activity (in words),[1],substantially less effective
same,% neuronal survival Mean ± SD,"Table 1, 1 μM in LK medium",77.7 ± 17.51%
same,% neuronal survival Mean ± SD,"Table 1, 5 μM in LK medium",68.5 ± 11.86%
same,% neuronal survival Mean ± SD,"Table 1, 25 μM in LK medium",64.4 ± 9.65%
(Z)-5-Bromo-3-(thien-2′-ylmethylene)indolin-2-one [Compound 43],% neuronal survival Mean ± SD,"Table 2, 1 μM in LK medium",56.8 ± 5.62%
same,% neuronal survival Mean ± SD,"Table 2, 5 μM in LK medium",58.3 ± 9.82%
same,% neuronal survival Mean ± SD,"Table 2, 25 μM in LK medium",66.4 ± 4.56%
"COc1cc(/C=C2\C(=O)Nc3ccc(F)cc32)cc(OC)c1OC [Compound 32, (Z)-5-Fluoro-3-(3′, 4′,5′-trimethoxybenzylidene)indolin-2-one]",neuroprotective activity (in words),[1],not effective
same,% neuronal survival Mean ± SD,"Table 1, 1 μM in LK medium",59.2 ± 1.77%
same,% neuronal survival Mean ± SD,"Table 1, 5 μM in LK medium",51.9 ± 7.14%
same,% neuronal survival Mean ± SD,"Table 1, 25 μM in LK medium",31.9 ± 1.77%
"O=C1Nc2ccc(Cl)cc2/C1=C\c1c(Cl)cccc1Cl [Compound 11, (E)-5-Chloro-3-(2′,6′-dichlorobenzylidene)indolin-2-one]",% neuronal survival Mean ± SD,"Table 1, 1 μM in LK medium",56.4 ± 14.41%
same,% neuronal survival Mean ± SD,"Table 1, 5 μM in LK medium",63.8 ± 3.46%
same,% neuronal survival Mean ± SD,"Table 1, 25 μM in LK medium",45.7 ± 24.05%
O=C1Nc2ccc([N+](=O)[O-])cc2/C1=C/c1ccc[nH]1 [Compound 39],% neuronal survival Mean ± SD,"Table 2, 1 μM in LK medium",84.4 ± 3.41 %
same,% neuronal survival Mean ± SD,"Table 2, 5 μM in LK medium",90.1 ± 6.55 %
same,% neuronal survival Mean ± SD,"Table 2, 25 μM in LK medium",87.9 ± 1.40 %
"COc1ccc(/C=C2/C(=O)Nc3ccc(Br)cc32)cc1 [Compound 19, (E)-5-Bromo-3-(4′-methoxybenzylidene)indolin-2-one]",neuroprotective activity (in words),[1],not effective
same,% neuronal survival Mean ± SD,"Table 1, 1 μM in LK medium",57.1 ± 4.51%
same,% neuronal survival Mean ± SD,"Table 1, 5 μM in LK medium",59.5 ± 9.10%
same,% neuronal survival Mean ± SD,"Table 1, 25 μM in LK medium",60.5 ± 9.56%
"COc1cc(/C=C2\C(=O)Nc3ccccc32)cc(OC)c1OC [Compound 3, (Z)-3-(3′, 4′,5′-Trimethoxybenzylidene)indolin-2-one]",neuroprotective activity (in words),[1],reduced activity
same,% neuronal survival Mean ± SD,"Table 1, 1 μM in LK medium",50.8 ± 7.50%
same,% neuronal survival Mean ± SD,"Table 1, 5 μM in LK medium",59.9 ± 7.98%
same,% neuronal survival Mean ± SD,"Table 1, 25 μM in LK medium",61.3 ± 11.35%
same,neuroprotective activity (in words),at all three concentrations,not protective
"O=C1Nc2ccc([N+](=O)[O-])cc2/C1=C/c1cccs1 [Compound 42, (Z)-5-Nitro-3-(thien-2′-ylmethylene)indolin-2-one]",% neuronal survival Mean ± SD,"Table 2, 1 μM in LK medium",75.1 ± 9.11 %
same,% neuronal survival Mean ± SD,"Table 2, 5 μM in LK medium",67.6 ± 2.29%
same,% neuronal survival Mean ± SD,"Table 2, 25 μM in LK medium",66.9 ± 10.30%
"O=C1Nc2ccc(F)cc2/C1=C\c1ccccc1 [Compound 33, (E)-3-Benzylidene-5-fluoroindolin-2-one]",neuroprotective activity (in words),[1],not effective
same,% neuronal survival Mean ± SD,"Table 1, 1 μM in LK medium",53.4 ± 2.12%
same,% neuronal survival Mean ± SD,"Table 1, 5 μM in LK medium",51.9 ± 15.56%
same,% neuronal survival Mean ± SD,"Table 1, 25 μM in LK medium",31.5 ± 17.51%
